Laboratory results reported in patent US20260217701A1, “SELECTIVE BET INHIBITORS AND USES THEREOF” (Tay Therapeutics Limited, priority 2022, published 2026).
“And” between values parts separate entries of the source, which are not always exact repeats. Equal values may be shown once.

Tested on: imiquimod-induced psoriasis
Assay: Imiquimod-induced psoriasis model
Format: in vivo, mice
Design: Spleen Weight / Spleen Weight Ratio: unit not given here
Conditions: for Mean scores of the presence of erythema on the skin of animals at the area of induction of psoriasis / Mean scores of the presence of induration on the skin of animals at the area of induction of psoriasis / Mean scores of the presence of peeling on the skin of animals at the area of induction of psoriasis: mean ± SEM
Outline: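 Psoriasis-like dermatitis induced in mice by daily dorsal imiquimod cream (Days 1–14); dosing with Compound A (5% DMSO/40% PEG-400/55% saline vehicle) began Day 8. Read-outs: summed 0–4 scores for erythema, induration and peeling daily to Day 15, plus terminal spleen ratio, behaviour and serum cytokines.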

[1] = IMI-psoriasis model, mice, 1 mg/kg, individual animals
[2] = IMI-psoriasis model, mice, 3 mg/kg, individual animals
[3] = IMI-psoriasis model, mice, 10 mg/kg, individual animals
[4] = IMI + 1 mg/kg, D8 (before start of treatment)
[5] = IMI + 3 mg/kg, D8 (before start of treatment)

`Cn1cc(-c2ccccc2)c(-c2cn(C)c(=O)c3[nH]c(-c4cnn(C(F)(F)F)c4)cc23)cc1=O` [Compound A, 6-methyl-4-(1-methyl-2-oxo-5-phenyl-1,2-dihydropyridin-4-yl)-2-(1-(trifluoromethyl)-1H-pyrazol-4-yl)-1,6-dihydro-7H-pyrrolo[2,3-c]pyridin-7-one] was tested, and the “Use Enrichment Mean D8-D15” value (IMI-psoriasis model, mean D8-D15, 10 mg/kg, per cage (two animals)) was 2.86 and 3.86 and 3.50 and 3.14, the “Spleen Weight” value [1] was 219.42 and 202.00 and 212.50 and 233.20 and 220.14 and 227.26 and 202.76 and 213.15 and the “Spleen Weight Ratio” value [1] was 1394.03 and 1137.39 and 1273.22 and 1367.74 and 1289.63 and 1310.61 and 1176.78 and 1298.90. For the same compound, the “Spleen Weight” value [2] was 199.90 and 205.09 and 178.46 and 185.94 and 214.46 and 180.80 and 187.63 and 151.76, the “Spleen Weight Ratio” value [2] was 1084.06 and 1245.23 and 967.79 and 1175.35 and 1265.25 and 1069.19 and 1163.24 and 921.43 and the “Spleen Weight” value [3] was 156.01 and 178.03 and 139.03 and 157.80 and 191.54 and 195.58 and 151.42 and 172.86. For the same compound, the “Spleen Weight Ratio” value [3] was 939.82 and 1083.57 and 757.66 and 813.82 and 1075.46 and 1071.08 and 902.92 and 1083.08, the “cytokine levels (IL-17, IL-22, IL-1β, IL-6, TNF-α, IL-23) relative to vehicle” value (all tested doses) was “marked reduction of all cytokines assayed” and the Spleen Weight Ratio (day 15, 1, 3, 10 mg/kg) was “dose-dependent decrease”. The “Mean scores of the presence of erythema on the skin of animals at the area of induction of psoriasis” value (“Mean scores of the presence of erythema” below) [4] was 2.0 ± 0.0, the “Mean scores of the presence of induration on the skin of animals at the area of induction of psoriasis” value [4] was 2.6 ± 0.2 and the “Mean scores of the presence of peeling on the skin of animals at the area of induction of psoriasis” value (“Mean scores of the presence of peeling” for short) [4] was 2.6 ± 0.2. For the same compound, the “Mean scores of the presence of erythema” value (IMI + 1 mg/kg, D9) was 2.0 ± 0.3, the “Mean scores of the presence of induration on the skin of animals at the area of induction of psoriasis” value (IMI + 1 mg/kg, D9) was 2.4 ± 0.2 and the “Mean scores of the presence of peeling” value (IMI + 1 mg/kg, D9) was 2.6 ± 0.2. For the same compound, the “Mean scores of the presence of erythema” value (IMI + 1 mg/kg, D10) was 1.75 ± 0.2, the “Mean scores of the presence of induration on the skin of animals at the area of induction of psoriasis” value (IMI + 1 mg/kg, D10) was 2.1 ± 0.2 and the “Mean scores of the presence of peeling” value (IMI + 1 mg/kg, D10) was 2.1 ± 0.1. The “Mean scores of the presence of erythema” value (IMI + 1 mg/kg, D11) was 1.9 ± 0.1, the “Mean scores of the presence of induration on the skin of animals at the area of induction of psoriasis” value (IMI + 1 mg/kg, D11) was 2.0 ± 0.3 and the “Mean scores of the presence of peeling” value (IMI + 1 mg/kg, D11) was 1.9 ± 0.2. For the same compound, the “Mean scores of the presence of erythema” value (IMI + 1 mg/kg, D12) was 1.5 ± 0.2, the “Mean scores of the presence of induration on the skin of animals at the area of induction of psoriasis” value (IMI + 1 mg/kg, D12) was 1.6 ± 0.2 and the “Mean scores of the presence of peeling” value (IMI + 1 mg/kg, D12) was 1.3 ± 0.2. The “Mean scores of the presence of erythema” value (IMI + 1 mg/kg, D13) was 0.5 ± 0.2, the “Mean scores of the presence of induration on the skin of animals at the area of induction of psoriasis” value (IMI + 1 mg/kg, D13) was 1.5 ± 0.2 and the “Mean scores of the presence of peeling” value (IMI + 1 mg/kg, D13) was 1.1 ± 0.1. The “Mean scores of the presence of erythema” value (IMI + 1 mg/kg, D14) was 0.3 ± 0.2, the “Mean scores of the presence of induration on the skin of animals at the area of induction of psoriasis” value (IMI + 1 mg/kg, D14) was 0.9 ± 0.2 and the “Mean scores of the presence of peeling” value (IMI + 1 mg/kg, D14) was 1.0 ± 0.0. The “Mean scores of the presence of erythema” value (IMI + 1 mg/kg, D15) was 0.0 ± 0.0, the “Mean scores of the presence of induration on the skin of animals at the area of induction of psoriasis” value (IMI + 1 mg/kg, D15) was 0.5 ± 0.2 and the “Mean scores of the presence of peeling” value (IMI + 1 mg/kg, D15) was 0.7 ± 0.2. The “Mean scores of the presence of erythema” value [5] was 1.9 ± 0.1, the “Mean scores of the presence of induration on the skin of animals at the area of induction of psoriasis” value [5] was 2.5 ± 0.2 and the “Mean scores of the presence of peeling” value [5] was 2.3 ± 0.2. The “Mean scores of the presence of erythema” value (IMI + 3 mg/kg, D9) was 1.6 ± 0.2, the “Mean scores of the presence of induration on the skin of animals at the area of induction of psoriasis” value (IMI + 3 mg/kg, D9) was 2.6 ± 0.2 and the “Mean scores of the presence of peeling” value (IMI + 3 mg/kg, D9) was 2.5 ± 0.2. The “Mean scores of the presence of erythema” value (IMI + 3 mg/kg, D10) was 1.4 ± 0.2, the “Mean scores of the presence of induration on the skin of animals at the area of induction of psoriasis” value (IMI + 3 mg/kg, D10) was 2.1 ± 0.1 and the “Mean scores of the presence of peeling” value (IMI + 3 mg/kg, D10) was 2.0 ± 0.2. For the same compound, the “Mean scores of the presence of erythema” value (IMI + 3 mg/kg, D11) was 1.0 ± 0.0, the “Mean scores of the presence of induration on the skin of animals at the area of induction of psoriasis” value (IMI + 3 mg/kg, D11) was 1.4 ± 0.2 and the “Mean scores of the presence of peeling” value (IMI + 3 mg/kg, D11) was 1.6 ± 0.2. The “Mean scores of the presence of erythema” value (IMI + 3 mg/kg, D12) was 0.8 ± 0.2, the “Mean scores of the presence of induration on the skin of animals at the area of induction of psoriasis” value (IMI + 3 mg/kg, D12) was 1.4 ± 0.2 and the “Mean scores of the presence of peeling” value (IMI + 3 mg/kg, D12) was 1.4 ± 0.2. For the same compound, the “Mean scores of the presence of erythema” value (IMI + 3 mg/kg, D13) was 0.3 ± 0.2, the “Mean scores of the presence of induration on the skin of animals at the area of induction of psoriasis” value (IMI + 3 mg/kg, D13) was 0.6 ± 0.2 and the “Mean scores of the presence of peeling” value (IMI + 3 mg/kg, D13) was 0.9 ± 0.1. For the same compound, the “Mean scores of the presence of erythema” value (IMI + 3 mg/kg, D14) was 0.3 ± 0.2, the “Mean scores of the presence of induration on the skin of animals at the area of induction of psoriasis” value (IMI + 3 mg/kg, D14) was 0.3 ± 0.2 and the “Mean scores of the presence of peeling” value (IMI + 3 mg/kg, D14) was 0.3 ± 0.2.
